One may read the Kd as the free concentration of one partner at which half of the binding sites on the other are occupied at equilibrium, for simple one-to-one binding. Read a high Kd as a looser complex. Broadly, the Km is the concentration of substrate that gives half-maximal velocity.

Molecules are shown by their SMILES.

Experiment [1] concerns the target T1, human pancreatic α-amylase (HPA) (Homo sapiens, UniProt P04746).
T1 sequence (P04746 16-511): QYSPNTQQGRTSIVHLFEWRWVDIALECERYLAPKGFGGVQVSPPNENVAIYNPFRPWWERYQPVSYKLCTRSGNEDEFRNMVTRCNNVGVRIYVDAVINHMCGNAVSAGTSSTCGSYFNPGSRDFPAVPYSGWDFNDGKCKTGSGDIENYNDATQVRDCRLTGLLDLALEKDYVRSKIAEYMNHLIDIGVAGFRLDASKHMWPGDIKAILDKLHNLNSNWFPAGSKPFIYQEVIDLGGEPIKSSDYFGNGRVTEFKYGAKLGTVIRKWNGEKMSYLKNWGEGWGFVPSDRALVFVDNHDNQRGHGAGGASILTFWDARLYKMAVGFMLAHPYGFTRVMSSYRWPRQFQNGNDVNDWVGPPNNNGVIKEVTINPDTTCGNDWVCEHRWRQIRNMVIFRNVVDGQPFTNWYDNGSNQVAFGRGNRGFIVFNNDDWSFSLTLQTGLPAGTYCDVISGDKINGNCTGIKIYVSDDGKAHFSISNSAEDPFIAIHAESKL
In words: ITC. It is filed as binding.

Experiment [2] concerns the target T1, human pancreatic α-amylase (HPA). The experiment can be described thus: hydrolysis kinetics, KM. Format: biochemical. The settings on record: read-out: KM ^b.

In experiment [1], `C=CCc1ccc(Oc2cc(CC=C)cc(OC)c2O)c(OC)c1` [DDEB, dehydrodieugenol B] had a Kd of 1.97 µM. In other words, the single-digit micromolar range.
For the molecule `OC[C@H]1O[C@H](O[C@H]2[C@H](O)[C@@H](O)[C@@H](O[C@H]3[C@H](O)[C@@H](O)[C@@H](O[C@H]4[C@H](O)[C@@H](O)[C@@H](O[C@H]5[C@H](O)[C@@H](O)C(O)O[C@@H]5CO)O[C@@H]4CO)O[C@@H]3CO)O[C@@H]2CO)[C@H](O)[C@@H](O)[C@@H]1O` (some centres unmarked) [maltopentaose], in experiment [2], the Michaelis constant (Km) was found to be 132 ± 6.62 µM.

For the origin of these results see publication PMC7841778 (ACS Omega, 2021).
